Key:
[1] = tested on: CFU-Mk, platelet precursors (human bone marrow mononuclear cells); experiment: Colony forming unit (CFU) assay (Example 6); type: cell-based; settings: for effect of antagonist on substance P enhanced platelet colony formation: in the presence of substance P
Text: (§1) As stem cells differentiate in response to growth factors, they form a colony of cells with distinct morphologies that can be visualized using a microscope. This study examined the formation of three different progenitor cell populations, erythrocytes, platelets and granulocytes/macrophages.
(§2) Bone marrow aspirates were obtained from three healthy donors between 18 and 35 years of age following appropriate guidelines and protocols. Bone marrow mononuclear cells were isolated using a Ficoll-Hypaque density gradient, separating red blood cells from the others. Cells from each donor were processed independently and used for setting up individual experiments to assess the effects, if any, of donor variability.
(§3) Cells (1×10^5) were plated in duplicate onto 35 mm tissue culture plates for each condition tested and set up as described in Rameshwar et al. 1993, Blood. 81:2, 391-398. Erythroid and granulocyte/macrophage cultures were plated using methylcellulose and megakaryocyte cultures (platelet precursors) used a collagen-based support (StemCell Technologies, Vancouver, Canada, catalogue #04973). […] CP 99,994 (Pfizer) was used as a neurokinin-1 receptor antagonist and SR 48968 (Sanofi) was used as a neurokinin-2 receptor antagonist.
Cultures were set up with limited cytokines and growth factors which would promote differentiation of one progenitor per plate.
Each compound was dissolved in endotoxin-free water to a final concentration of 0.1 mM. After reconstitution, the solutions were aliquoted into siliconized microcentrifuge tubes and exposed to nitrogen gas, eliminating oxygen in the head space of the enclosure. All aliquots were stored at −20° C. until use and used within one month of reconstitution. See, Rameshwar, et al. 1997, J. Immunol.
Cultures were incubated at 37° C. with 5% CO2 for approximately 14 days, after which colonies were manually enumerated using a microscope. […]

[2] = tested on: human-derived hematopoietic cell populations; experiment: CFC assay, multi-donor study, all seven cell populations (Example 4); type: cell-based; settings: highest doses (up to 1 nM); three donors
Protocol: Compound was dissolved in 1 ml of Iscove's Modified Dulbecco's Medium (IMDM) and a serial dose response was prepared in single log doses so that the final dose in culture ranged from 1 nanoMolar (nM) to 1×10^−16 M. All working dilutions were performed in IMDM. Cell cultures from each donor were started at different times and a fresh solution of Homspera® was prepared for each individual experiment.
Starting with human bone marrow aspirate, the mononuclear cell (MNC) fraction from each aspirate was separated from whole bone marrow using Ficoll-Paque density gradient centrifugation.
The colony-forming cell (CFC) assay was performed using optimal growth factor/cytokine concentrations. The reagents and conditions were similar to those used in Example 3, except that no ATP measurements were performed. The MNC fraction from each bone marrow donor was dissolved in IMDM and cultured at a concentration of 5,000 cells/well in a Culture Master Mix (HemoGenix, Inc., Colorado Springs, Colo.). […]
The mean, standard deviation and percent coefficient of variation was calculated for all groups, transposed and plotted as a function of donor. The percent from control values were calculated and also plotted as a function of donor. […]

[3] = tested on: human bone marrow-derived hematopoietic cell populations; experiment: CFC and iATP assays, all 7 cell populations (Example 3); type: cell-based; settings: most of populations; 14 days; up to 1 nM
Protocol: The compound was dissolved in 1 ml of Iscove's Modified Dulbecco's Medium (IMDM) and a serial dose response prepared in single log doses so that the final dose in culture ranged from 1 nM to 1×10^−16 M. All working dilutions were performed in IMDM.
Starting with human bone marrow aspirate, the mononuclear cell (MNC) fraction was separated from the whole bone marrow using Ficoll-Paque density gradient centrifugation. […] The cell concentration was adjusted so that the final cell concentration in culture was 10,000 cells/well.
Human bone marrow MNC was dissolved in IMDM and cultured at a concentration of 10,000 cell/well in a CAMEO™-96 Master Mix (HemoGenix, Inc., Colorado Springs, Colo.). […]
Prior to processing all 96-well plates, the total colony counts/well were manually enumerated by microscopy. The mean, standard deviation and percent coefficient of variation was calculated for all groups, transposed and plotted. The intracellular ATP (iATP) concentration was measured after manual enumeration.
The output of the luminometer is non-standardized Relative Luminescence Units (RLU). […] This allowed the RLU values to be automatically calculated into standardized ATP (μM) units. For both the RLU and ATP values derived from each well, the luminometer software calculated the mean, standard deviation and percent coefficient of variation.

[4] = tested on: neurokinin-1 (NK1) receptor; NK2 and NK3 receptors; settings: Tousignant et al. 1990; cited from earlier work
[5] = tested on: BFU-E (human bone marrow mononuclear cells); experiment: Colony forming unit (CFU) assay (Example 6); type: cell-based; settings: approximately 14 days; FIG. 1
Text: as §1, §2
as §3, with “antagonist. […]” for “antagonist.”

[6] = tested on: CFU-E (human bone marrow mononuclear cells); experiment: Colony forming unit (CFU) assay (Example 6); type: cell-based; settings: approximately 14 days; FIG. 2
Text: as §1, §2
as §3, with “antagonist. […]” for “antagonist.”

COc1ccccc1CN[C@H]1CCCN[C@H]1c1ccccc1 [CP-99,994]
effect of antagonist on substance P enhanced platelet colony formation [1]: blocks the stimulatory activity of substance P

CC(C)C[C@H](NC(=O)CN(C)C(=O)[C@H](Cc1ccccc1)NC(=O)[C@H](Cc1ccccc1)NC(=O)[C@H](CCC(N)=O)NC(=O)[C@H](CCC(N)=O)NC(=O)[C@@H]1CCCN1C(=O)[C@H](CCCCN)NC(=O)[C@@H]1CCCN1C(=O)[C@@H](N)CCCNC(=N)N)C(=O)N[C@@H](CCS(C)(=O)=O)C(N)=O [Homspera®]
toxicity [2]: no apparent toxicity | cytotoxicity [3]: apparent absence of distinct cytotoxicity

CC(=O)NC1(c2ccccc2)CCN(CC[C@H](CN(C)C(=O)c2ccccc2)c2ccc(Cl)c(Cl)c2)CC1 [SR48968]
effect of antagonist on substance P enhanced platelet colony formation [1]: no effect on substance P activity

RPKPQQFFGLM [substance P]
effective concentration, platelet precursors (CFU-Mk) [1]: 10^−8 M | neurokinin receptor specificity [4]: can also activate the neurokinin-2 (NK2) and neurokinin-3 (NK3) receptors | BFU-E colony formation, increase from control values [5]: ~60% | CFU-E colony formation, enhancement from control values [6]: about 70%

Reference: US20100143477A1, “Methods and Compositions for Stimulating the Proliferation or Differentiation of Stem Cells with Substance Por an Analog Thereof” (Immuneregen Biosciences, Inc., priority 2007, published 2010)
